Calls of active or inactive are those of the source. The rule behind the calls is not given here.
Assays:
Nucleic Acid [1] = assay: Stabilization of AM1A T box antiterminator model RNA assessed as effect on flexibility of RNA after 40 hrs by autoradiography based in-line probing assay; format: nucleic-acid assay
Nucleic Acid [2] = assay: Binding affinity to AM1A T box antiterminator model RNA assessed as change in melting temperature at 100 uM by UV-thermal denaturation method; format: nucleic-acid assay
Nucleic Acid [3] = assay: Binding affinity to AM1A T box antiterminator model RNA at 100 to 300 uM after 130 mins by FRET assay; format: nucleic-acid assay
Nucleic Acid [4] = assay: Binding affinity to AM1A T box antiterminator model RNA assessed as melting temperature at 100 uM by UV-thermal denaturation method (reference value: 51 deg C)
Nucleic Acid [5] = assay: Stabilization of AM1A T box antiterminator model RNA assessed as reduction in flexibility at U6-C12 bulge region of RNA after 40 hrs by autoradiography based in-line probing assay; format: nucleic-acid assay
Nucleic Acid [6] = assay: Binding affinity to C11U T box antiterminator model RNA at 100 to 300 uM after 130 mins by FRET assay; format: nucleic-acid assay

Activity (Nucleic Acid [1]): Active
Tm(app) (Nucleic Acid [2]): 69 °C
Kd (Nucleic Acid [3]): 56 µM
Tm (Nucleic Acid [4]): 52 °C
Activity (Nucleic Acid [5]): Active
Kd (Nucleic Acid [6]): 59 µM
Compound: CN(CCCc1ccccc1)Cc1cn(CC(O)COC(=O)NCc2ccccc2)nn1 (stereo unspecified)
